# Measurements published in patent publication US6432879B1, “Substituted phenyl uracils” (Bayer Aktiengesellschaft, priority 1997, dated 2002).
# What was measured:
# weeds [1] = experiment: Pre-emergence test, action against weeds; assay type: in vivo; details: soil sprayed about 24 hours after sowing, rated after three weeks vs untreated control
# Method: (§1) Solvent: 5 parts by weight of acetone
# (§2) Emulsifier: 1 part by weight of alkylaryl polyglycol ether
# To produce a suitable preparation of active compounds, 1 part by weight of active compound is mixed with the stated amount of solvent, the stated amount of emulsifier is added and the concentrate is diluted with water to the desired concentration.
# Seeds of the test plants are sown in normal soil. After about 24 hours, the soil is sprayed with the preparation of active compounds such that the particular amounts of active compound desired are applied per unit area. The concentration of the spray liquor is chosen so that the particular amounts of active compound desired are applied in 1000 l of water/ha.
# (§3) After three weeks, the degree of damage to the plants is rated in % damage in comparison to the development of the untreated control.
# (§4) 0%=no effect (like untreated control)
# weeds [2] = experiment: Post-emergence test, activity against weeds; assay type: in vivo; details: test plants of 5-15 cm sprayed, rated after three weeks vs untreated control
# Method: as §1, §2
# To produce a suitable preparation of active compound, 1 part by weight of active compound is mixed with the stated amount of solvent, the stated amount of emulsifier is added and the concentrate is diluted with water to the desired concentration.
# Test plants of a height of 5-15 cm are sprayed with the preparation of active compound such that the particular amounts of active compound desired are applied per unit area. The concentration of the spray liquor is chosen so that the particular amounts of active compound desired are applied in 1000 l of water/ha.
# as §3, §4
melting point,Compound,action against weeds (degree of damage to the plants) (weeds [1]),activity against weeds (degree of damage to the plants) (weeds [2])
159 °C,"Cn1c(C(F)(F)F)cc(=O)n(-c2ccc(OCc3ccc(Cl)cc3)cc2[N+](=O)[O-])c1=O [Example 3, 1-[4-(4-chloro-phenylmethoxy)-2-nitrophenyl]-3-methyl-4-trifluoromethyl-3,6-dihydro-2,6-dioxo-1(2H)-pyrimidine]",strong action,–
230 °C,"CC(=O)Nc1cc(OCc2ccc(Cl)cc2)ccc1-n1c(=O)cc(C(F)(F)F)n(C)c1=O [Example 7, 1-[2-acetylamino-4-(4-chloro-phenylmethoxy)-phenyl]-3-methyl-4-trifluoromethyl-3,6-dihydro-2,6-dioxo-1(2H)-pyrimidine]",strong action,strong activity
166 °C,"Cn1c(C(F)(F)F)cc(=O)n(-c2ccc(OCc3ccc(Cl)cc3)cc2N)c1=O [Example 5, 1-[2-amino-4-(4-chloro-phenylmethoxy)-phenyl]-3-methyl-4-trifluoromethyl-3,6-dihydro-2,6-dioxo-1(2H)-pyrimidine]",strong action,strong activity
209 °C,"O=c1cc(C(F)(F)F)[nH]c(=O)n1-c1ccc(OCc2ccc(Cl)nc2)cc1[N+](=O)[O-] [Example 2, 1-[4-(2-chloro-pyridin-5-yl-methoxy)-2-nitrophenyl]-4-trifluoromethyl-3,6-dihydro-2,6-dioxo-1(2H)-pyrimidine]",–,–
237 °C,"O=c1cc(C(F)(F)F)[nH]c(=O)n1-c1ccc(OCc2ccc(Cl)cc2)cc1[N+](=O)[O-] [Example 1, 1-[4-(4-chloro-phenylmethoxy)-2nitrophenyl]-4-trifluoromethyl-3,6-dihydro-2,6-dioxo-1(2H)-pyrimidin]",–,–
193 °C,"Nn1c(C(F)(F)F)cc(=O)n(-c2ccc(OCc3ccc(Cl)nc3)cc2[N+](=O)[O-])c1=O [Example 4, 3-amino-1-[4-(2-chloro-pyridin-5-yl-methoxy)-2-nitro-phenyl]-4-trifluoromethyl-3,6-dihydro-2,6-dioxo-1(2H)-pyrimidine]",–,–
